Results on 10 molecules are retold here after publication PMC4777217, “Modelling the Tox21 10 K chemical profiles for in vivo toxicity prediction and mechanism characterization” (Nature Communications, 2016).

The target of experiment [1] is T1, peroxisome proliferator-activated receptor gamma (Homo sapiens, UniProt P37231).
T1 sequence (P37231 238-505 limits assumed): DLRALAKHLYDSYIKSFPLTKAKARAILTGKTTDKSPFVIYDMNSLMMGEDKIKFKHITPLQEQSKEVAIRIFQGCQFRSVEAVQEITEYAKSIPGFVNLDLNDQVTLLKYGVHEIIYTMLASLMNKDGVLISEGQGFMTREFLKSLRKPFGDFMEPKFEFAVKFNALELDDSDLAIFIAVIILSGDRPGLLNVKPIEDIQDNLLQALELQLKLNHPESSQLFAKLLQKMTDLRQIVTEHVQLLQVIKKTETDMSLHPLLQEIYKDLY
In words: PPAR-gamma-bla antagonist mode qHTS assay. Format: cell-based. The following applies: positive control titration on every plate, mean, n=408. (In qHTS, concentration-response curves come from the screen itself.)
Source text: (§1) The assays were run in different modes (agonist versus antagonist) and/or formats (full length versus partial receptor) as detailed below, totaling 30 assays. […] All cell-based assays were multiplexed with a cell viability assay in the same assay well. Although bla-based assays were multiplexed with a luminescence-based cell viability assay (CellTiter-Glo viability assay, Promega), luc-based assays were multiplexed with a fluorescence-based cell viability assay (Cell Titer-Fluor viability assay, Promega). […]
(§2) In primary screening, all compounds were tested as three independent runs, with each of the three instances of a compound sample residing in a different location on a different compound plate across replicates. […] Briefly, raw plate reads for each titration point were first normalized relative to the positive control compound (agonist mode: 100%; antagonist mode: 0%) and dimethylsulphoxide (DMSO)-only wells (agonist mode: 0%; antagonist mode: -100%) as follows: % Activity=((Vcompound – VDMSO)/(Vpos – VDMSO)) × 100, where Vcompound denotes the compound well values, Vpos denotes the median value of the positive control wells and VDMSO denotes the median values of the DMSO-only wells, and then corrected by applying an in-house pattern correction algorithm using compound-free control plates (that is,, DMSO-only plates) at the beginning and end of the compound plate stack. […]

The subject of the next experiment is ATAD5. In words: ATAD5-luc genotoxicity assay (agonist mode). Format: cell-based. The following applies: Homo sapiens, positive control titration on every plate, mean, n=408.
Experiment [2] has as its target T2, peroxisome proliferator-activated receptor delta (Homo sapiens, UniProt Q03181).
T2 sequence (Q03181 211-441 limits assumed): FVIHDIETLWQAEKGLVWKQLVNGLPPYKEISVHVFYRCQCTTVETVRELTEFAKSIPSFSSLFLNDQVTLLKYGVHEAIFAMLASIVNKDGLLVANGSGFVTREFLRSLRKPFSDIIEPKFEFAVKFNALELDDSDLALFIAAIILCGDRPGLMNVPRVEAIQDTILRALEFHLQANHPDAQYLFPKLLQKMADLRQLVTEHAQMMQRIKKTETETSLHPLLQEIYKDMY
In words: PPAR-delta-bla agonist mode qHTS assay. Format: cell-based. To be noted: positive control titration on every plate, mean, n=408.
Source text: as §1, §2

For experiment [3], the target named is aryl hydrocarbon receptor (Homo sapiens, UniProt P35869). Briefly: AhR-luc qHTS assay. The experiment is classed as cell-based. To be noted: positive control titration on every plate, mean, n=408.
Chain of aryl hydrocarbon receptor (P35869 11-848): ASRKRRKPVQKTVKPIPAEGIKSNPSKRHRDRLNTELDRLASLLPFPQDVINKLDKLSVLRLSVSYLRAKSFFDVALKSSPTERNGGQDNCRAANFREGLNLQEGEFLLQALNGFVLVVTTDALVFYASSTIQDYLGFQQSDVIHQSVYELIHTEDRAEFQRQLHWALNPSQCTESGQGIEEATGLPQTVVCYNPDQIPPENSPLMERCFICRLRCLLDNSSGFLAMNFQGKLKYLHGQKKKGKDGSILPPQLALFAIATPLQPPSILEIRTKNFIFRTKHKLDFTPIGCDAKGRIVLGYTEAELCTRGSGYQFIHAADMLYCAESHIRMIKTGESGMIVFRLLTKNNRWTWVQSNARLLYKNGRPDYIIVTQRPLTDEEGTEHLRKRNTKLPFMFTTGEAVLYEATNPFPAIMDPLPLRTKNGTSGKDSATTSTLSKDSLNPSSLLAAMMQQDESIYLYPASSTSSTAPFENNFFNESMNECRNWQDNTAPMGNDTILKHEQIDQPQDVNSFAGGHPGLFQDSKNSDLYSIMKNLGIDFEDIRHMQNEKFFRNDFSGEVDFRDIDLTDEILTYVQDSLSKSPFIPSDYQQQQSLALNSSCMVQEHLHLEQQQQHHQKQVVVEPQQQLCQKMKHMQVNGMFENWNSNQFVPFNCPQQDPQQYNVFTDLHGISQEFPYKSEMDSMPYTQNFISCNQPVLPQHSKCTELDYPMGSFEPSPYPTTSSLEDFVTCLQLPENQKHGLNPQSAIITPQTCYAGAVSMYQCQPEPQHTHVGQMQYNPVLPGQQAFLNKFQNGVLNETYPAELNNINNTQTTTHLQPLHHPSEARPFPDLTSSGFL
Source text: (§3) All cell-based assays were multiplexed with a cell viability assay in the same assay well. Although bla-based assays were multiplexed with a luminescence-based cell viability assay (CellTiter-Glo viability assay, Promega), luc-based assays were multiplexed with a fluorescence-based cell viability assay (Cell Titer-Fluor viability assay, Promega). […] A number of stress response pathway assays, including ATAD5-luc[33], a genotoxicity assay, p53-bla, antioxidant responsive element (ARE-bla)[34] and heat-shock factor response element (HSE-bla) assays, were screened in agonist mode.
(§4) In primary screening, all compounds were tested as three independent runs, with each of the three instances of a compound sample residing in a different location on a different compound plate across replicates. […] Analysis of compound concentration–response data was performed as previously described[5]. […] Compound reproducibility was assessed by calculating the reproducibility of the curve ranks of each compound generated from the triplicate runs[9].
In experiment [4] the test system is antioxidant responsive element. In words: ARE-bla qHTS assay (agonist mode). Format: cell-based. To be noted: Homo sapiens, positive control titration on every plate, mean, n=408.
Source text: as §1, §2
A further experiment deals with p53. Briefly: P53-bla qHTS assay (agonist mode). Format: cell-based. The following applies: Homo sapiens, positive control titration on every plate, mean, n=408.
Experiment [5] deals with heat-shock factor response element. In words: HSE-bla qHTS assay (agonist mode). The experiment is classed as cell-based, human. To be noted: positive control titration on every plate, mean, n=408.
Source text: as §3, §4
Experiment [6] deals with T2, peroxisome proliferator-activated receptor delta. In words: PPAR-delta-bla antagonist mode qHTS assay. To be noted: positive control titration on every plate, mean, n=408. Format: cell-based.
Source text: as §1, §2
The test system of another experiment is DT40 Rev3 cells. Briefly: DT40 Rev3 cell viability assay. Format: cell-based, chicken. The following applies: positive control titration on every plate, mean, n=408.
The next experiment deals with DT40 WT cells. Briefly: DT40 WT cell viability assay. The following applies: positive control titration on every plate, mean, n=408. Format: cell-based, chicken.
The next experiment relates to DT40 Rad54/Ku70 cells. Briefly: DT40 Rad54/Ku70 mutant cell viability assay. Format: cell-based, chicken. To be noted: positive control titration on every plate, mean, n=408.
The next experiment deals with Mitochondria toxicity. To be noted: read-out: Control AC50, positive control titration on every plate, mean, n=408.

Source text for ATAD5: as §3, §4
Source text for p53: as §1, §2

Turning to `O=C(Nc1ccccc1)c1cc([N+](=O)[O-])ccc1Cl` [GW9662], the AC50 in experiment [1] was found to be 2.47 nM.
Turning to `O=c1[nH]c(=O)n([C@@H]2O[C@H](CO)[C@@H](O)[C@H]2O)cc1F` [5-Fluorouridine], in the experiment with ATAD5, the AC50 amounted to 2120 nM.
`CCCc1c(OCCCOc2ccc(OCC(=O)O)cc2)ccc(C(C)=O)c1O` [L-165,041] displayed an AC50 in [2] of 36.4 nM.
In turn, `COc1ccc2[nH]c([S+]([O-])Cc3ncc(C)c(OC)c3C)nc2c1` (stereo not drawn) [Omeprazole] displayed an AC50 in [3] of 49500 nM.
For the molecule `O=c1cc(-c2ccccc2)oc2ccc3ccccc3c12` [β-Naphthoflavone], in experiment [4], the AC50 was 1950 nM.
Regarding `CO[C@@]12[C@H](COC(N)=O)C3=C(C(=O)C(C)=C(N)C3=O)N1C[C@@H]1N[C@@H]12` [Mitomycin C], in the experiment on p53, the AC50 came to 1530 nM.
Take `C=CCNC1=C2C[C@@H](C)C[C@H](OC)[C@H](O)[C@@H](C)/C=C(\C)[C@H](OC(N)=O)[C@@H](OC)/C=C\C=C(/C)C(=O)NC(=CC1=O)C2=O` [17-AAG]: the AC50 in [5] was 45.3 nM.
Regarding `CC(C)c1ccc2c(c1)c(SC(C)(C)C)c(CC(C)(C)C(=O)O)n2Cc1ccc(Cl)cc1` [MK886], in experiment [6], the AC50 was found to be 38500 nM.
Turning to `CCCCCCCC[N+](CCCCCCCC)(CCCCCCCC)CCCCCCCC` [Tetra-octyl ammonium bromide], the AC50 with DT40 Rev3 cells was 440 nM; in the experiment on DT40 WT cells, 594 nM; in the experiment with DT40 Rad54/Ku70 cells, 416 nM.
Regarding `N#CC(C#N)=NNc1ccc(OC(F)(F)F)cc1` [FCCP], the AC50 in the experiment on Mitochondria toxicity stood at 96.2 nM.
